The results in this text go back to patent US9115101B2 (Genentech, Inc., priority 2012, dated 2015).

One may read the IC50 as the concentration needed to halve the response being measured.

The target in this assay is T1, RORc ligand binding domain (Homo sapiens, UniProt P51449).
T1 construct: host or cells: E. coli
T1 sequence (P51449 269-508 limits assumed): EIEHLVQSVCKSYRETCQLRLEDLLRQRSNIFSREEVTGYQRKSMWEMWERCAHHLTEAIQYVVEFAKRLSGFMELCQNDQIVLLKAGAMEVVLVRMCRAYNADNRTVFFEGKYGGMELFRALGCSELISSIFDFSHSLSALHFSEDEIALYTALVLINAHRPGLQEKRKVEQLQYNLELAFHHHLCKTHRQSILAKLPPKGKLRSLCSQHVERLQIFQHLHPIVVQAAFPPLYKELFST
Description: In Vitro RORc Ligand Binding Assay (25-[3H]hydroxycholesterol radioligand filtration). Conditions: In Vitro RORc Ligand Binding Assay; Table 4; read-out: RORc IC50.

Consider `CS(=O)(=O)N1CCC(Oc2ccc(CN3CCCC(c4ccccc4)S3(=O)=O)c(F)c2)CC1` (single isomer, unassigned) [Example 54, 2-(2-fluoro-4-((1-(methylsulfonyl)piperidin-4-yl)oxy)benzyl)-6-phenyl-1,2-thiazinane 1,1-dioxide], for which the half-maximal inhibitory concentration (IC50) is 37 nM.

Regarding `CS(=O)(=O)N1CCC(Oc2ccc(CN3CCCC(c4ccccc4)S3(=O)=O)c(F)c2)CC1` (single isomer, unassigned) [Example 55, 2-(2-fluoro-4-((1-(methylsulfonyl)piperidin-4-yl)oxy)benzyl)-6-phenyl-1,2-thiazinane 1,1-dioxide], the IC50 worked out at 86 nM.

For `CS(=O)(=O)N1CCC(Oc2ccc(CN3CCOCC(c4ccccc4)S3(=O)=O)c(F)c2)CC1` (single isomer, unassigned) [Example 56, 5-(2-fluoro-4-((1-(methylsulfonyl)piperidin-4-yl)oxy)benzyl)-3-phenyl-1,4,5-oxathiazepane 4,4-dioxide], the IC50 worked out at 94 nM.

As for `CS(=O)(=O)N1CCC(Oc2ccc(CN3CCOCC(c4ccccc4)S3(=O)=O)c(F)c2)CC1` (single isomer, unassigned) [Example 57, 5-(2-fluoro-4-((1-(methylsulfonyl)piperidin-4-yl)oxy)benzyl)-3-phenyl-1,4,5-oxathiazepane 4,4-dioxide], the IC50 turned out to be 14 nM.

Turning to `C[C@H]1CCC(c2ccccc2)S(=O)(=O)N1Cc1ccc(N2CCN(C(=O)C3CC3)CC2)cc1F` (single isomer, unassigned) [Example 58], the half-maximal inhibitory concentration (IC50) worked out at 14 nM.

Consider `C[C@H]1CCC(c2ccccc2)S(=O)(=O)N1Cc1ccc(N2CCN(C(=O)C3CC3)CC2)cc1F` (single isomer, unassigned) [Example 59], for which the IC50 worked out at 15 nM.

Consider `C[C@H]1CCC(c2ccccc2)S(=O)(=O)N1Cc1ccc(N2CCN(C(=O)C3CC3)CC2)cc1` (single isomer, unassigned) [Example 60], for which the IC50 was found to be 15 nM.

As for `C[C@H]1CCC(c2ccccc2)S(=O)(=O)N1Cc1ccc(N2CCN(C(=O)C3CC3)CC2)cc1` (single isomer, unassigned) [Example 61], the IC50 was 61 nM.

Regarding `CC(=O)N1CCN(c2ccc(CN3[C@@H](C)CC(c4ccccc4)S3(=O)=O)c(F)c2)CC1` (single isomer, unassigned) [Example 63], the IC50 worked out at 570 nM.

As to `CC(=O)N1CCN(c2ccc(CN3[C@@H](C)CC(c4ccccc4)S3(=O)=O)c(F)c2)CC1` (single isomer, unassigned) [Example 64], the IC50 came to 709 nM.

In the case of `CC(=O)N1CCN(c2ccc(CN3[C@H](C)CC(c4ccccc4)S3(=O)=O)c(F)c2)CC1` (single isomer, unassigned) [Example 65], the IC50 came out at 2300 nM.

For the compound `CC(=O)N1CCN(c2ccc(CN3[C@H](C)CC(c4ccccc4)S3(=O)=O)c(F)c2)CC1` (single isomer, unassigned) [Example 66], the IC50 was 310 nM.

For the compound `CC(=O)N1CCN(c2ccc(CN3CC(C)CC(c4ccccc4)S3(=O)=O)c(F)c2)CC1` (single isomer, unassigned) [Example 68, 1-{4-[3-Fluoro-4-(4-methyl-1,1-dioxo-6-phenyl-[1,2]thiazinan-2-ylmethyl)-phenyl]-piperazin-1-yl}-ethanone], the IC50 was 403 nM.

Turning to `C[C@H]1CCC(c2ccccc2)S(=O)(=O)N1Cc1ccc(N2CCN(C(=O)CC#N)CC2)cc1F` (single isomer, unassigned) [Example 69], the IC50 was determined as 103 nM.

Consider `C[C@H]1CCC(c2ccccc2)S(=O)(=O)N1Cc1ccc(N2CCN(C(=O)CC#N)CC2)cc1F` (single isomer, unassigned) [Example 71], for which the IC50 was determined as 41 nM.

In the case of `C[C@H]1CCC(c2ccccc2)S(=O)(=O)N1Cc1ccc(N2CCN(C(=O)CCC#N)CC2)cc1F` (single isomer, unassigned) [Example 72], the IC50 is 64 nM.

On to `C[C@H]1CCC(c2ccccc2)S(=O)(=O)N1Cc1ccc(N2CCN(C(=O)CCC#N)CC2)cc1F` (single isomer, unassigned) [Example 73], for which the IC50 came to 466 nM.

As for `COCC(=O)N1CCN(c2ccc(CN3[C@@H](C)CCC(c4ccccc4)S3(=O)=O)c(F)c2)CC1` (single isomer, unassigned) [Example 74], the IC50 was 29 nM.

For `COCC(=O)N1CCN(c2ccc(CN3[C@@H](C)CCC(c4ccccc4)S3(=O)=O)c(F)c2)CC1` (single isomer, unassigned) [Example 75], the IC50 was found to be 167 nM.

For the compound `CO[C@@H](C)C(=O)N1CCN(c2ccc(CN3[C@@H](C)CCC(c4ccccc4)S3(=O)=O)c(F)c2)CC1` (single isomer, unassigned) [Example 76], the IC50 stood at 31 nM.

On to `CO[C@@H](C)C(=O)N1CCN(c2ccc(CN3[C@@H](C)CCC(c4ccccc4)S3(=O)=O)c(F)c2)CC1` (single isomer, unassigned) [Example 77], for which the IC50 came to 138 nM.

Consider `C[C@H](O)C(=O)N1CCN(c2ccc(CN3[C@@H](C)CCC(c4ccccc4)S3(=O)=O)c(F)c2)CC1` (single isomer, unassigned) [Example 78], for which the concentration for half-maximal inhibition (IC50) came out at 29 nM.

Turning to `C[C@H](O)C(=O)N1CCN(c2ccc(CN3[C@@H](C)CCC(c4ccccc4)S3(=O)=O)c(F)c2)CC1` (single isomer, unassigned) [Example 79], the half-maximal inhibitory concentration (IC50) was 82 nM.

As for `CC(=O)N1CCCN(c2ccc(CN3[C@@H](C)CCC(c4ccccc4)S3(=O)=O)c(F)c2)CC1` (single isomer, unassigned) [Example 80], the IC50 is 14 nM.

For `CC(=O)N1CCCN(c2ccc(CN3[C@@H](C)CCC(c4ccccc4)S3(=O)=O)c(F)c2)CC1` (single isomer, unassigned) [Example 81], the IC50 is 118 nM.

Regarding `C[C@H]1CCC(c2ccccc2)S(=O)(=O)N1Cc1ccc(N2CCCN(C(=O)CC#N)CC2)cc1F` (single isomer, unassigned) [Example 82], the half-maximal inhibitory concentration (IC50) was found to be 22 nM.

Turning to `C[C@H]1CCC(c2ccccc2)S(=O)(=O)N1Cc1ccc(N2CCCN(C(=O)CC#N)CC2)cc1F` (single isomer, unassigned) [Example 83], the IC50 amounted to 213 nM.

On to `C[C@H]1CCC(c2ccccc2)S(=O)(=O)N1Cc1ccc(N2CC3(CCOCC3)C2)cc1F` (single isomer, unassigned) [Example 84], for which the IC50 was determined as 23 nM.

As to `C[C@H]1CCC(c2ccccc2)S(=O)(=O)N1Cc1ccc(N2CC3(CCOCC3)C2)cc1F` (single isomer, unassigned) [Example 85], the IC50 amounted to 89 nM.

With `C[C@H]1CCC(c2ccccc2)S(=O)(=O)N1Cc1ccc(N2CCC(C#N)CC2)cc1F` (single isomer, unassigned) [Example 86], the IC50 came out at 15 nM.

`C[C@H]1CCC(c2ccccc2)S(=O)(=O)N1Cc1ccc(N2CCC(C#N)CC2)cc1F` (single isomer, unassigned) [Example 87]: the IC50 was 200 nM.

For `C[C@H]1CCC(c2ccccc2)S(=O)(=O)N1Cc1ccc(N2CCCNCC2)cc1F` (single isomer, unassigned) [Example 88], the IC50 came to 819 nM.

Turning to `C[C@H]1CCC(c2ccccc2)S(=O)(=O)N1Cc1ccc(N2CCCNCC2)cc1F` (single isomer, unassigned) [Example 89], the IC50 amounted to 1250 nM.

In the case of `CO[C@@H](C)C(=O)N1CCCN(c2ccc(CN3[C@@H](C)CCC(c4ccccc4)S3(=O)=O)c(F)c2)CC1` (single isomer, unassigned) [Example 90], the IC50 is 76 nM.

With `C[C@H](O)C(=O)N1CCCN(c2ccc(CN3[C@@H](C)CCC(c4ccccc4)S3(=O)=O)c(F)c2)CC1` (single isomer, unassigned) [Example 91], the IC50 was determined as 254 nM.

Turning to `CO[C@@H](C)C(=O)N1CCCN(c2ccc(CN3[C@@H](C)CCC(c4ccccc4)S3(=O)=O)c(F)c2)CC1` (single isomer, unassigned) [Example 92], the IC50 amounted to 154 nM.

For the compound `C[C@H](O)C(=O)N1CCCN(c2ccc(CN3[C@@H](C)CCC(c4ccccc4)S3(=O)=O)c(F)c2)CC1` (single isomer, unassigned) [Example 93], the 50% inhibitory concentration (IC50) stood at 49 nM.

For `C[C@H]1CCC(c2ccccc2)S(=O)(=O)N1Cc1ccc(N2CC3(CCOC3)C2)cc1F` (single isomer, unassigned) [Example 94], the IC50 worked out at 54 nM.

For the compound `C[C@H]1CCC(c2ccccc2)S(=O)(=O)N1Cc1ccc(N2CC3(CCOC3)C2)cc1F` (single isomer, unassigned) [Example 95], the IC50 worked out at 93 nM.

With `C[C@H]1CCC(c2ccccc2)S(=O)(=O)N1Cc1ccc(N2CCNCC2)cc1F` (single isomer, unassigned) [Example 96], the IC50 amounted to 4480 nM.

As to `C[C@H]1CCC(c2ccccc2)S(=O)(=O)N1Cc1ccc(N[C@H]2CC[C@@H](C#N)CC2)cc1F` (single isomer, unassigned) [Example 97], the IC50 came to 40 nM.

`C[C@H]1CCC(c2ccccc2)S(=O)(=O)N1Cc1ccc(N2CCC3(CC2)COC3)cc1F` (single isomer, unassigned) [Example 99]: the IC50 was found to be 44 nM.

As to `C[C@H]1CCC(c2ccccc2)S(=O)(=O)N1Cc1ccc(N2CCC3(CC2)COC3)cc1F` (single isomer, unassigned) [Example 100], the IC50 stood at 12 nM.

Consider `C[C@H]1CCC(c2ccccc2)S(=O)(=O)N1Cc1ccc(N2CCC3(COC3)C2)cc1F` (single isomer, unassigned) [Example 102], for which the IC50 came to 25 nM.

Take `C[C@H]1CCC(c2ccccc2)S(=O)(=O)N1Cc1ccc(N2CCC(S(=O)(=O)N(C)C)CC2)cc1F` (single isomer, unassigned) [Example 103]: the IC50 amounted to 146 nM.

`C[C@H]1CCC(c2ccccc2)S(=O)(=O)N1Cc1ccc(N2CCC(CS(C)(=O)=O)CC2)cc1F` (single isomer, unassigned) [Example 104]: the 50% inhibitory concentration (IC50) was found to be 54 nM.

On to `C[C@H]1CCC(c2ccccc2)S(=O)(=O)N1Cc1ccc(N2CCC(CS(C)(=O)=O)CC2)cc1F` (single isomer, unassigned) [Example 105], for which the IC50 amounted to 18 nM.
